Here are results for two compounds from US20230339968A1, “KRAS Gl2C INHIBITORS” (Eli Lilly and Company, priority 2019, published 2023).

Values joined by “and” are separate entries in the source; they are usually repeats but may differ in a detail not shown here. Equal values may be shown once.

What all share (assay type): cell-based
In one assay the target is T1, RAS GTPase (Homo sapiens, UniProt P01116, G12C).
T1 construct: endogenous in cells; host or cells: H358 (ATCC CRL-5807)
The experiment in a line: H358 Cellular Active RAS GTPase ELISA. The note with it: H358 cells, 2 hours; n=4; read-out: relative IC50. From the text: The purpose of this assay is to measure the ability of test compounds to inhibit constitutive RAS GTPase activity in human lung cancer cells H358 (ATCC CRL-5807). The RAS GTPase ELISA kit (Active Motif Cat #52097) contains a 96-well plate pre-coated with glutathione in order to capture a kit-supplied GST-Raf-RBD protein. Activated RAS (GTP-bound) in cell extracts specifically bind to the Raf-RBD. Bound RAS is detected with a primary antibody that recognizes human KRas. A secondary antibody conjugated with HRP recognizes the primary antibody and a development solution provides a chemiluminescent readout.
H358 cells are plated at 80,000 cells/well in 90 μL serum free media (RPMI 1640, GIBCO) and incubated overnight at 37° C./5% CO2. The next morning, 10 μL of serially-diluted (3-fold) test compounds (500 μM top concentration) and 10 μL of controls (Maximum signal wells: 5% DMSO and Minimum signal wells: 500 μM 1-[4-[6-chloro-8-fluoro-7-(3-hydroxy-1-naphthyl)quinazolin-4-yl]piperazin-1-yl]prop-2-en-1-one, WO2015054572 as an inhibitor) are added to the cell plate and incubated for 2 hours at 37° C./5% CO2. […] The assay plate is then read on an EnVision™ Plate Reader (Perkin Elmer) using a luminescence program. […]
Compounds within the scope of this invention are evaluated in this assay substantially as described above.

The subject of a further assay is NCI-H1792. The experiment in a line: In vitro combination proliferation assay (4 day, Cell TiterGlo), NCI-H1792. The note with it: NCI-H1792, 4 day growth assay, absolute IC50. How it is done: (§1) Eleven cell lines for this study are obtained from ATCC and grown under ATCC recommended conditions. All cell lines have a KRAS G12C mutation, and they are […] lung cancer cell lines (H358, H1373, H1792, H2030, H2122, SW1573 and HCC44), two colorectal cancer cell lines (SW837 and SW1463), one pancreatic cancer cell line (MiaPaca-2), and one esophageal cancer cell line (KYSE410). The proliferation assay is performed as a 4 day growth assay using Cell TiterGlo® as the readout. Briefly, cells are plated in 96-well cell culture plates and allowed to adhere overnight at 37° C. The following day, cells are treated with compounds, either single treatments or combination treatments. First, the testing compounds are serially diluted in DMSO, followed by dilution into media as a 5×concentration with 1% DMSO, and finally added to cells in media to dilute to 1×. […] At the end of the incubation period, Cell TiterGlo® reagent is mixed and added to the wells. After 10 minutes, the luminescence is read by a Perkin Elmer Envision instrument. Absolute IC50 values generated by a 4-parameter logistics model for the single and combination treatments are generated, followed by combination indexes for each combination treatment and cell line. The combination IC50 values are adjusted based on the total concentration of each compound when added together. […] The combination index (CI) measures the degree to which the potency of a combination therapy differs from the expected-if-additive potency and is based on the Loewe definition of additivity.
(§2) • CA,y and CB,y are the concentrations of therapies A and B that produce an effect, y, when given in combination • ICA,y and ICB,y are the concentrations of A and B that produce an effect, y, when given individually
In some cases, if an estimated IC50 value is used for CI calculation, the calculated CI is called Potentiation Index. The biological interpretation of the combination or potentiation index is as follows: synergistic if the combination or potentiation index <0.5, additive if the combination or potentiation index is between 0.5 and 2, and antagonistic if the combination index or potentiation is >2.
Similar combinational effects are observed with carboplatin and cisplatin combination.
In general terms: In ATP-based viability assays light output follows the ATP content of the culture.

The subject of another assay is H358. The experiment in a line: In vitro combination proliferation assay (4 day, Cell TiterGlo), H358. The note with it: H358, 4 day growth assay, absolute IC50. The procedure:
as §1, §2
In some cases, if an estimated IC50 value is used for CI calculation, the calculated CI is called Potentiation Index. The biological interpretation of the combination or potentiation index is as follows: synergistic if the combination or potentiation index <0.5, additive if the combination or potentiation index is between 0.5 and 2, and antagonistic if the combination index or potentiation is >2. […]

T1 sequence (P01116 1-188 isoform P01116-2 G12C): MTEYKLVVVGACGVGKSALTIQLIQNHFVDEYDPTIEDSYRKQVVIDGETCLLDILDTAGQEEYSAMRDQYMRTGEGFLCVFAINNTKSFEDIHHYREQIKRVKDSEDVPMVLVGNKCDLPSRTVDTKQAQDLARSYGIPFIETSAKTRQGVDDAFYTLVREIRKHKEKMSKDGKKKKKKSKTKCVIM

By IC50 is commonly meant the concentration that gives 50% inhibition. Consider `C=CC(=O)N1CCN2C(=O)c3cc(Cl)c(-c4ccc(F)c5sc(N)nc45)c(Cl)c3OCC[C@H]2C1` (atropisomer, axis not shown) [Example 1, (13aS)-9-(2-Amino-7-fluoro-1,3-benzothiazol-4-yl)-8,10-dichloro-2-prop-2-enoyl-1,3,4,12,13,13a-hexahydropyrazino[2,1-d][1,5]benzoxazocin-6-one], for which the IC50 at RAS GTPase turned out to be 6.72 nM.
For the compound `C=CC(=O)N1CCN2C(=O)c3cc(F)c(-c4ccc(F)c5sc(N)c(C#N)c45)c(Cl)c3OCC[C@H]2C1` [Example 35, 4-[(13aS)-10-Chloro-8-fluoro-6-oxo-2-prop-2-enoyl-1,3,4,12,13,13a-hexahydropyrazino[2,1-d][1,5]benzoxazocin-9-yl]-2-amino-7-fluoro-benzothiophene-3-carbonitrile], the “IC50, single treatment (Compound IC50 / Example 35 IC50 / ABS_IC50)” value in the assay on NCI-H1792 was 862.9 nM and 839.9 nM. For the same compound, in the assay with H358, the “IC50, single treatment (Compound IC50 / Example 35 IC50)” value is 3.199 nM and 2.231 nM; the “IC50, single treatment (Compound IC50 / Example 35 IC50 / ABS_IC50)” value is 1.854 nM and 1 nM.
